# Data from patent US20090023718A1 (Aton Pharma, Inc., priority 2003, published 2009).
# Target: T1, histone deacetylase, subtype 1 (HDAC1) (Homo sapiens, UniProt Q13547)
# T1 construct: Flag; made in house
# Assay: HDAC1-Flag assay (in vitro fluorescent deacetylation assay)
# Format: biochemical
# Conditions: Table 1, compounds of formula II; epitope-tagged human HDAC1 complex, substrate at Km; mean ± spread (N); read-out: HDAC Inhibition (IC50) nm
# Protocol: Novel compounds were tested for their ability to inhibit histone deacetylase, subtype 1 (HDAC1) using an in vitro deacetylation assay. The enzyme source for this assay was an epitope-tagged human HDAC1 complex immuno-purified from stably expressing mammalian cells. The substrate consisted of a commercial product containing an acetylated lysine side chain (BIOMOL Research Laboratories, Inc., Plymouth Meeting, Pa.). Upon deacetylation of the substrate by incubation with the purified HDAC1 complex, a fluorophore is produced that is directly proportional to the level of deacetylation.
# T1 sequence (Q13547 whole entry): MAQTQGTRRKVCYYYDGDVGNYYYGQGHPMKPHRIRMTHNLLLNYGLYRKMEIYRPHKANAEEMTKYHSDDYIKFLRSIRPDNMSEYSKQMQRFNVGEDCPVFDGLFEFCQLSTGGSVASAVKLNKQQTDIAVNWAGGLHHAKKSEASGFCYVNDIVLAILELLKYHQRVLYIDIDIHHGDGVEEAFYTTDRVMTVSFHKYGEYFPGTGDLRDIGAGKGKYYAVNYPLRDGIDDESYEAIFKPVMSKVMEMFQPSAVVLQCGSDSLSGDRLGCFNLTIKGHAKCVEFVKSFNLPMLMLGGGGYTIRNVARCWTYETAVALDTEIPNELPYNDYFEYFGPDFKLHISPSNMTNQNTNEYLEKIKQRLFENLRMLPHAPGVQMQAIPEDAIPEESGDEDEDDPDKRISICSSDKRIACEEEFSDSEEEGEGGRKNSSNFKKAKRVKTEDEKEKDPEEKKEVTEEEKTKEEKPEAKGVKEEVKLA
row,Structure (SMILES),IC50
1,"O=C(CCCCCC(=O)N(CC(=O)Nc1ccccc1Oc1ccccc1)CC(=O)Nc1ccccc1Oc1ccccc1)NO [Compound 26, Heptanedioic acid bis-[(2-phenoxy-phenylcarbamoyl)-methyl]-amide hydroxyamide]",449 ± 40.3 nM
2,"O=C(CCCCCC(=O)N(CC(=O)Nc1ccc(N2CCOCC2)cc1)CC(=O)Nc1ccc(N2CCOCC2)cc1)NO [Compound 27, Heptanedioic acid bis-[(4-morpholin-4-yl-phenylcarbamoyl)-methyl]-amide hydroxyamide]",40 ± 8.4 nM
3,"Cc1ccc(S(=O)(=O)Nc2ccc(NC(=O)CN(CC(=O)Nc3ccc(NS(=O)(=O)c4ccc(C)cc4)cc3)C(=O)CCCCCC(=O)NO)cc2)cc1 [Compound 28, Heptanedioic acid bis{[4-(toluene-4-sulfonylamino)-phenylcarbamoyl]-methyl}-amide hydroxyamide]",33 ± 12.7 nM
4,"O=C(CCCCCC(=O)N(CC(=O)Nc1cccc(Oc2ccccc2)c1)CC(=O)Nc1cccc(Oc2ccccc2)c1)NO [Compound 30, Heptanedioic acid bis-[(3-phenoxy-phenylcarbamoyl)-methyl]-amide hydroxyamide]",137 ± 18.3 nM
5,"O=C(CCCCCC(=O)N(CC(=O)Nc1ccc2c(c1)Cc1ccccc1-2)CC(=O)Nc1ccc2c(c1)Cc1ccccc1-2)NO [Compound 31, Heptanedioic acid bis-[(9H-fluoren-2-ylcarbamoyl)-methyl]-amide hydroxyamide]",59 ± 18.3 nM
6,CC(C)(C)c1ccc(NC(=O)CN(CC(=O)Nc2ccc(C(C)(C)C)cc2)C(=O)CCCCCC(=O)NO)cc1 [Compound 32],152 ± 48.7 nM
7,"O=C(CCCCCC(=O)N(CC(=O)NCCc1c[nH]c2ccccc12)CC(=O)NCCc1c[nH]c2ccccc12)NO [Compound 33, Heptanedioic acid bis-{[2-(1H-indol-3-yl)-ethylcarbamoyl]-methyl}-amide hydroxyamide]",39.5 ± 37.4 nM
8,"Cn1c(NC(=O)CN(CC(=O)Nc2nc3ccccc3n2C)C(=O)CCCCCC(=O)NO)nc2ccccc21 [Compound 38, Heptanedioic acid bis-[(1-methyl-1H-benzoimidazol-2-ylcarbamoyl)-methyl]-amide hydroxyamide]",84 ± 8.4 nM

# Same assay, conditions: Table 2, compounds of formula III; epitope-tagged human HDAC1 complex, substrate at Km; mean ± spread (N); read-out: HDAC Inhibition (IC50) nm
row,Structure (SMILES),IC50
1,"O=C(CCCCCN(CC(=O)NCCc1ccccc1)CC(=O)NCCc1ccccc1)NO [Compound 42, 6-[Bis-(phenethylcarbamoyl-methyl)-amino]-hexanoic acid hydroxyamide]",55.5 ± 0.7 nM
2,"O=C(CCCCCCCN(CC(=O)Nc1ccccc1)CC(=O)Nc1ccccc1)NO [Compound 43, 8-(Bis-phenylcarbamoylmethyl-amino)-octanoic acid hydroxyamide]",86.5 ± 26.1 nM
3,"O=C(CCCCN(CC(=O)Nc1ccccc1)CC(=O)Nc1ccccc1)NO [Compound 44, 5-(Bis-phenylcarbamoylmethyl-amino)-pentanoic acid hydroxyamide]",133 ± 59.3 nM
4,"O=C(CCCCCN(CC(=O)N1CCN(c2ccccc2)CC1)CC(=O)N1CCN(c2ccccc2)CC1)NO [Compound 45, 6-{Bis-[2-oxo-2-(4-phenyl-piperazin-1-yl)-ethyl]-amino}-hexanoic acid hydroxyamide]",140 ± 16.2 nM
5,"O=C(CCCCCCCN(CC(=O)NCc1ccccc1)CC(=O)NCc1ccccc1)NO [Compound 47, 8-[Bis-(benzylcarbamoyl-methyl)-amino]-octanoic acid hydroxyamide]",181 ± 23.3 nM
6,"O=C(CCCCCN(CC(=O)NCc1ccccc1)CC(=O)NCc1ccccc1)NO [Compound 48, 6-[Bis-(benzylcarbamoyl-methyl)-amino]-hexanoic acid hydroxyamide]",187 ± 10.6 nM
7,"O=C(CCCCCCCN(CC(=O)NCCc1ccccc1)CC(=O)NCCc1ccccc1)NO [Compound 49, 8-[Bis-(phenethylcarbamoyl-methyl)-amino]-octanoic acid hydroxyamide]",191 ± 20.5 nM
8,"O=C(CCCCCN(CC(=O)NC1CCCCC1)CC(=O)NC1CCCCC1)NO [Compound 50, 6-(Bis-cyclohexylcarbamoylmethyl-amino)-hexanoic acid hydroxyamide]",267 ± 32.5 nM
9,"CC(C)CNC(=O)CN(CCCCCC(=O)NO)CC(=O)NCC(C)C [Compound 51, 6-[Bis-(isobutylcarbamoyl-methyl)-amino]-hexanoic acid hydroxyamide]",288 ± 53 nM
10,"O=C(CCCCCN(CC(=O)NCC1CCCCC1)CC(=O)NCC1CCCCC1)NO [Compound 52, 6-{Bis-[(cyclohexylmethyl-carbamoyl)-methyl]-amino}-hexanoic acid hydroxyamide]",311 ± 24.7 nM
11,"O=C(CCCCCN(CC(=O)N1CCC(Cc2ccccc2)CC1)CC(=O)N1CCC(Cc2ccccc2)CC1)NO [Compound 53, 6-{Bis-[2-(4-benzyl-piperidin-1-yl)-2-oxo-ethyl]-amino}-hexanoic acid hydroxyamide]",873 ± 57.9 nM
12,"O=C(CCCCN(CC(=O)NCCc1ccccc1)CC(=O)NCCc1ccccc1)NO [Compound 54, 5-[Bis-(phenethylcarbamoyl-methyl)-amino]-pentanoic acid hydroxyamide]",886 ± 20.5 nM
13,"O=C(CCCCN(CC(=O)NCc1ccccc1)CC(=O)NCc1ccccc1)NO [Compound 55, 5-[Bis-(benzylcarbamoyl-methyl)-amino]-pentanoic acid hydroxyamide]",907 ± 60.8 nM
14,"O=C(CCCCCN(CC(=O)N1CCCCC1)CC(=O)N1CCCCC1)NO [Compound 56, 6-[Bis-(2-oxo-2-piperidin-1-yl-ethyl)-amino]-hexanoic acid hydroxyamide]",2080 ± 383 nM
15,"O=C(CCCCCN(CC(=O)N1CCOCC1)CC(=O)N1CCOCC1)NO [Compound 57, 6-[Bis-(2-morpholin-4-yl-2-oxo-ethyl)-amino]-hexanoic acid hydroxyamide]",2280 ± 889 nM

# Same assay, conditions: Table 3, compounds of formula IV; epitope-tagged human HDAC1 complex, substrate at Km; mean ± spread (N); read-out: HDAC Inhibition (IC50) nm
row,Structure (SMILES),IC50
1,O=C(CCCCC(=O)N(Cc1ccccc1)Cc1ccccc1)NO [Compound 58],899 ± 243 nM
2,O=C(CCCCC(=O)N(CCc1ccccc1)Cc1ccccc1)NO [Compound 59],2590 ± 807 nM
3,O=C(CCCCCCC(=O)N(CCc1c[nH]c2ccccc12)Cc1ccc(Br)cc1)NO [Compound 60],387 ± 80.6 nM
4,O=C(CCCCCC(=O)N(CCc1c[nH]c2ccccc12)Cc1ccc(Br)cc1)NO [Compound 61],162 ± 88.3 nM
5,O=C(CCCCCCC(=O)N(Cc1ccccc1)Cc1ccccc1)NO [Compound 62],462 ± 51.6 nM
6,O=C(CCCCCCC(=O)N(CCc1ccccc1)Cc1ccccc1)NO [Compound 63],591 ± 46.6 nM
7,O=C(CCCCCCCCC(=O)N(CCc1ccccc1)Cc1ccccc1)NO [Compound 64],434 ± 2.8 nM
8,O=C(CCCCCCC(=O)N1CCN(C(=O)OCc2ccccc2)CC1)NO [Compound 65],301 ± 21.2 nM
9,O=C(CCC(=O)N1CCN(c2ccccc2)CC1)NO [Compound 66],44300 nM
10,O=C(CCC(=O)N1CCN(c2ccc(Cl)cc2)CC1)NO [Compound 67],16200 nM
11,O=C(CCC(=O)N1CCN(c2ccccc2Cl)CC1)NO [Compound 68],73300 nM
12,O=C(CCC(=O)N1CCN(c2cccc(Cl)c2)CC1)NO [Compound 69],13000 nM
13,CC(=O)c1ccc(N2CCN(C(=O)CCC(=O)NO)CC2)cc1 [Compound 70],24000 nM
14,"O=C(CCCC(=O)N1CCN(c2ccccc2)CC1)NO [Compound 71, 5-Oxo-5-(4-phenyl-piperazin-1-yl)-pentanoic acid hydroxyamide]",1220 ± 31.1 nM
15,"O=C(CCCC(=O)N1CCN(c2cccc(Cl)c2)CC1)NO [Compound 72, 5-[4-(3-Chloro-phenyl)-piperazin-1-yl]-5-oxo-pentanoic acid hydroxyamide]",474 ± 36 nM
